Patent US20230109839A1, “THERAPEUTIC AGENT FOR TAUOPATHIES” (SUMITOMO PHARMA CO., LTD., priority 2020, published 2023)

Biological target: T1, human Nav1.1 (Homo sapiens, UniProt P35498)
T1 construct: host or cells: HEK293
Test: Amplification of Nav1.1-derived voltage-gated sodium current (Nav1.1 current), automated patch clamp (Test 1)
Format: cell-based
Conditions: HEK293 cell line stably expressing human Nav1.1
How it was run: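 HEK293 cells stably expressing human Nav1.1, restricted to cells with >500 pA current, were recorded by automated voltage-clamp patch clamp with a ramp voltage stimulus. Compounds were applied in HEPES-buffered extracellular solution with 1% DMSO. Amplification (%) = 100×(peak or AUC after/before compound)−100.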

[1] = Concentration for evaluation 1 μM
[2] = Concentration for evaluation 3 μM
[3] = Concentration for evaluation 50 μM
[4] = Concentration for evaluation 10 μM

Nav1.1 current amplification rate (%) [1]	Structure (SMILES)	also measured
191%	CC1CC=C(c2ccc(=O)n(CC(=O)Nc3ccn4ncnc4c3)n2)CC1 (centres unmarked) [Example 330]	
68%	CC1CC=C(c2ccc(=O)n(CC(=O)Nc3ccc4c(cnn4C)c3)n2)CC1 (centres unmarked) [Example 336]	
52%	CC1CC=C(c2ccc(=O)n(CC(=O)Nc3cnc4nccn4c3)n2)CC1 (centres unmarked) [Example 337]	
241%	CC1CC=C(c2ccc(=O)n(CC(=O)Nc3ccn4cncc4c3)n2)CC1 (centres unmarked) [Example 338]	
127%	CC1CC=C(c2ccc(=O)n(CC(=O)Nc3ccc4ncnn4c3)n2)CC1 (centres unmarked) [Example 339]	
109%	CC1CC=C(c2ccc(=O)n(CC(=O)Nc3ccn4nncc4c3)n2)CC1 (centres unmarked) [Example 342]	
44%	CC1CC=C(c2ccc(=O)n(CC(=O)Nc3ccc4nccn4c3)n2)CC1 (centres unmarked) [Example 343]	
69%	CC1CC=C(c2ccc(=O)n(CC(=O)Nc3ccc4cncn4c3)n2)CC1 (centres unmarked) [Example 344]	
232%	CC1CC=C(c2ccc(=O)n(CC(=O)Nc3ccc4cnnn4c3)n2)CC1 (centres unmarked) [Example 345]	
96%	CC1CC=C(c2ccc(=O)n(CC(=O)Nc3ccc4nccn4n3)n2)CC1 (centres unmarked) [Example 346]	
37%	Cc1nc2ccc(NC(=O)Cn3nc(C4=CCC(C)CC4)ccc3=O)cn2n1 (centres unmarked) [Example 347]	
57%	CC1CC=C(c2ccc(=O)n(CC(=O)Nc3cnc4c(cnn4C)c3)n2)CC1 (centres unmarked) [Example 348]	
31%	CC1CC=C(c2ccc(=O)n(CC(=O)Nc3ccc4ncnn4n3)n2)CC1 (centres unmarked) [Example 350]	
155%	Cc1cc(NC(=O)Cn2nc(C3=CCC(C)CC3)ccc2=O)cc2ncnn12 (centres unmarked) [Example 352]	
123%	CC1CC=C(c2ccc(=O)n(CC(=O)Nc3ccc4nccnc4c3)n2)CC1 (centres unmarked) [Example 354]	
130%	CC1CC=C(c2ccc(=O)n(CC(=O)Nc3ccc4ncncc4c3)n2)CC1 (centres unmarked) [Example 355]	
378%	CC1CC=C(c2ccc(=O)n(CC(=O)Nc3ccc4cncnc4c3)n2)CC1 (centres unmarked) [Example 356]	
71%	CC1CC=C(c2ccc(=O)n(CC(=O)Nc3ccn4cnnc4c3)n2)CC1 (centres unmarked) [Example 358]	
200%	CC1CC=C(c2ccc(=O)n(CC(=O)Nc3ccc(C#N)nc3)n2)CC1 (centres unmarked) [Example 360]	
101%	Cc1nccn1-c1ccc(NC(=O)Cn2nc(C3=CCC(C)CC3)ccc2=O)cc1 (centres unmarked) [Example 361]	
133%	CC1CC=C(c2ccc(=O)n(CC(=O)Nc3ccnc(C#N)c3)n2)CC1 (centres unmarked) [Example 362]	
174%	CC1CC=C(c2ccc(=O)n(CC(=O)Nc3cccc(-n4ccnc4)c3)n2)CC1 (centres unmarked) [Example 363]	
134%	CC1CC=C(c2ccc(=O)n(CC(=O)Nc3ccc(-n4ccnc4)nc3)n2)CC1 (centres unmarked) [Example 377]	
37%	CC1CC=C(c2ccc(=O)n(CC(=O)Nc3cncc(-c4cnn(C)c4)c3)n2)CC1 (centres unmarked) [Example 378]	

Continued, compound first:

Structure (SMILES)	Nav1.1 current amplification rate (%) [1]	also measured
CC1CC=C(c2ccc(=O)n(CC(=O)N3CCc4c(CNC5CCOC5)cccc43)n2)CC1 (centres unmarked) [Example 316]	81%	
CC1CC=C(c2ccc(=O)n(CC(=O)N3CCc4c(CNC5CCOCC5)cccc43)n2)CC1 (centres unmarked) [Example 317]	41%	
CC1CC=C(c2ccc(=O)n(CC(=O)N3CCc4cc(C5CN(C6COC6)C5)ccc43)n2)CC1 (centres unmarked) [Example 318]		Nav1.1 current amplification rate (%) [2]: 77%
CC1CC=C(c2ccc(=O)n(CC(=O)N3CCc4c3ccnc4N3CCOCC3)n2)CC1 (centres unmarked) [Example 319]	134%	
CC1CC=C(c2ccc(=O)n(CC(=O)N3CCc4cc(OCC(C)(C)O)ccc43)n2)CC1 (centres unmarked) [Example 320]	10%	
CC1CC=C(c2ccc(=O)n(CC(=O)N3CCc4c(C5CN(C(=O)CO)C5)cccc43)n2)CC1 (centres unmarked) [Example 321]		Nav1.1 current amplification rate (%) [2]: 478%
CC1CC=C(c2ccc(=O)n(CC(=O)Nc3cccc(N4CCOCC4)c3F)n2)CC1 (centres unmarked) [Example 322]		Nav1.1 current amplification rate (%) [2]: 115%
Cc1cc(NC(=O)Cn2nc(C3=CCC(C)CC3)ccc2=O)cc2ncoc12 (centres unmarked) [Example 323]		Nav1.1 current amplification rate (%) [2]: 154%
CC1CC=C(c2ccc(=O)n(CC(=O)Nc3ccc4oc(CN(C)C)nc4c3)n2)CC1 (centres unmarked) [Example 324]		Nav1.1 current amplification rate (%) [2]: 50%
COCc1nc2cc(NC(=O)Cn3nc(C4=CCC(C)CC4)ccc3=O)ccc2o1 (centres unmarked) [Example 325]		Nav1.1 current amplification rate (%) [2]: 233%
Cc1nc2cc(NC(=O)Cn3nc(C4=CCC(C)CC4)ccc3=O)cnc2s1 (centres unmarked) [Example 326]		Nav1.1 current amplification rate (%) [2]: 132%
CC1CC=C(c2ccc(=O)n(CC(=O)Nc3ccc4oc(C(C)(C)O)nc4c3)n2)CC1 (centres unmarked) [Example 327]		Nav1.1 current amplification rate (%) [2]: 124%
CC1CC=C(c2ccc(=O)n(CC(=O)Nc3cc4nccn4cn3)n2)CC1 (centres unmarked) [Example 328]		Nav1.1 current amplification rate (%) [2]: 58%
Cc1nc2cc(NC(=O)Cn3nc(C4=CCC(C)CC4)ccc3=O)ccn2c1C (centres unmarked) [Example 329]		Nav1.1 current amplification rate (%) [2]: 100%
CC1CC=C(c2ccc(=O)n(CC(=O)Nc3ccc4oc(CN5CCOCC5)nc4c3)n2)CC1 (centres unmarked) [Example 331]		Nav1.1 current amplification rate (%) [2]: 64%
COC1CN(Cc2nc3cc(NC(=O)Cn4nc(C5=CCC(C)CC5)ccc4=O)ccc3o2)C1 (centres unmarked) [Example 332]		Nav1.1 current amplification rate (%) [2]: 15%
CC1CC=C(c2ccc(=O)n(CC(=O)Nc3ccc4oc(CN5CCC5)nc4c3)n2)CC1 (centres unmarked) [Example 333]		Nav1.1 current amplification rate (%) [2]: 25%
CC1CC=C(c2ccc(=O)n(CC(=O)Nc3ccn4cc(C5CC5)nc4c3)n2)CC1 (centres unmarked) [Example 334]		Nav1.1 current amplification rate (%) [2]: 255%
CC1CC=C(c2ccc(=O)n(CC(=O)Nc3ccn4c(C5CC5)cnc4c3)n2)CC1 (centres unmarked) [Example 335]		Nav1.1 current amplification rate (%) [2]: 187%
Cc1cc2nc(NC(=O)Cn3nc(C4=CCC(C)CC4)ccc3=O)ccn2n1 (centres unmarked) [Example 340]		Nav1.1 current amplification rate (%) [3]: 41%
CC1CC=C(c2ccc(=O)n(CC(=O)Nc3ccc4nncn4c3)n2)CC1 (centres unmarked) [Example 341]		Nav1.1 current amplification rate (%) [3]: 202%
Cc1cc(NC(=O)Cn2nc(C3=CCC(C)CC3)ccc2=O)cn2ncnc12 (centres unmarked) [Example 349]	101%	
Cc1cc2ncnn2cc1NC(=O)Cn1nc(C2=CCC(C)CC2)ccc1=O (centres unmarked) [Example 351]		Nav1.1 current amplification rate (%) [3]: 98%
Cc1c(NC(=O)Cn2nc(C3=CCC(C)CC3)ccc2=O)ccc2ncnn12 (centres unmarked) [Example 353]		Nav1.1 current amplification rate (%) [3]: 32%

Structure (SMILES)	Nav1.1 current amplification rate (%) [1]	also measured
CC1CC=C(c2ccc(=O)n(CC(=O)Nc3ccc4ncccc4c3)n2)CC1 (centres unmarked) [Example 357]		Nav1.1 current amplification rate (%) [3]: 43%
CC1CC=C(c2ccc(=O)n(CC(=O)Nc3cc4nccn4cc3C#N)n2)CC1 (centres unmarked) [Example 359]		Nav1.1 current amplification rate (%) [4]: 26%
CC1CC=C(c2ccc(=O)n(CC(=O)Nc3cncc(CN(C)C)c3)n2)CC1 (centres unmarked) [Example 365]		Nav1.1 current amplification rate (%) [3]: 32%
COC1CN(Cc2cncc(NC(=O)Cn3nc(C4=CCC(C)CC4)ccc3=O)c2)C1 (centres unmarked) [Example 366]		Nav1.1 current amplification rate (%) [3]: 37%
CC1CC=C(c2ccc(=O)n(CC(=O)Nc3cncc(C4=CCN(C)C4)c3)n2)CC1 (centres unmarked) [Example 367]	38%	
CC1CC=C(c2ccc(=O)n(CC(=O)NC3CCN(c4ccccc4)CC3)n2)CC1 (centres unmarked) [Example 368]		Nav1.1 current amplification rate (%) [4]: 18%
CC1CC=C(c2ccc(=O)n(CC(=O)NC3CCN(c4ccccc4)C3)n2)CC1 (centres unmarked) [Example 369]		Nav1.1 current amplification rate (%) [3]: 10%
CC1CC=C(c2ccc(=O)n(CC(=O)Nc3ccnc(CO)c3)n2)CC1 (centres unmarked) [Example 370]		Nav1.1 current amplification rate (%) [4]: 35%
CC1CC=C(c2ccc(=O)n(CC(=O)Nc3ccnc(C4=CCN(C)C4)c3)n2)CC1 (centres unmarked) [Example 371]		Nav1.1 current amplification rate (%) [3]: 64%
CC1CC=C(c2ccc(=O)n(CC(=O)NC3CN(c4ccccc4)C3)n2)CC1 (centres unmarked) [Example 372]		Nav1.1 current amplification rate (%) [4]: 52%
CC1CC=C(c2ccc(=O)n(CC(=O)Nc3ccnc(CN4CCOCC4)c3)n2)CC1 (centres unmarked) [Example 373]		Nav1.1 current amplification rate (%) [4]: 35%
CC1CC=C(c2ccc(=O)n(CC(=O)Nc3ccc(C4=CCN(C)C4)nc3)n2)CC1 (centres unmarked) [Example 374]		Nav1.1 current amplification rate (%) [4]: 18%
CC1CC=C(c2ccc(=O)n(CC(=O)Nc3ccc(-c4cnn(C)c4)nc3)n2)CC1 (centres unmarked) [Example 375]		Nav1.1 current amplification rate (%) [4]: 173%
CC1CC=C(c2ccc(=O)n(CC(=O)Nc3ccc(CO)nc3)n2)CC1 (centres unmarked) [Example 376]		Nav1.1 current amplification rate (%) [4]: 44%
CC1CC=C(c2ccc(=O)n(CC(=O)Nc3ccnc(-c4cnn(C)c4)c3)n2)CC1 (centres unmarked) [Example 379]		Nav1.1 current amplification rate (%) [4]: 147%
Cc1ncc(-c2cncc(NC(=O)Cn3nc(C4=CCC(C)CC4)ccc3=O)c2)o1 (centres unmarked) [Example 380]	82%	
CC1CC=C(c2ccc(=O)n(CC(=O)Nc3cncc(C4=CCOC4)c3)n2)CC1 (centres unmarked) [Example 381]	153%	
CC1CC=C(c2ccc(=O)n(CC(=O)Nc3cncc(C4=COCCC4)c3)n2)CC1 (centres unmarked) [Example 382]	13%	
CC1CC=C(c2ccc(=O)n(CC(=O)Nc3ccnc(N4CCOCC4)c3F)n2)CC1 (centres unmarked) [Example 383]	84%	
CC1CC=C(c2ccc(=O)n(CC(=O)N3CCCN(c4cccnc4)CC3)n2)CC1 (centres unmarked) [Example 384]	15%	
CC1CC=C(c2ccc(=O)n(CC(=O)N3CC=C(c4ccccn4)C3)n2)CC1 (centres unmarked) [Example 385]		Nav1.1 current amplification rate (%) [3]: 42%
CC1CC=C(c2ccc(=O)n(CC(=O)N3CC=C(c4cccnc4)C3)n2)CC1 (centres unmarked) [Example 386]		Nav1.1 current amplification rate (%) [3]: 126%
CC1CC=C(c2ccc(=O)n(CC(=O)N3CC=C(c4ccncc4)C3)n2)CC1 (centres unmarked) [Example 387]	19%	
